Read-outs that look alike come from different tables or passages of the source.
Assays:
[1] = logP by HPLC on reversed-phase column (C 18), EEC Directive 79/831 Annex V.A8; type: physicochemical
Protocol: In table 1, the logP values were determined in accordance with EEC Directive 79/831 Annex V.A8 by HPLC (High Performance Liquid Chromatography) on a reversed-phase column (C 18), using the method described below: Temperature: 40° C.; […]

Puccinia triticina = experiment: In vivo preventive test on Puccinia triticina (wheat); conditions: evaluated 8 days after inoculation; for Efficacy: dose 500 ppm of active ingredient
Botrytis cinerea = experiment: In vivo preventive test on Botrytis cinerea (beans)
Text: To test for preventive activity, young plants are sprayed with the preparation of active compound. After the spray coating has dried on, 2 small pieces of agar covered with growth of Botrytis cinerea are placed on each leaf.

Alternaria solani = experiment: In vivo preventive test on Alternaria solani (tomato); conditions: 500 ppm of active ingredient, evaluated 7 days after inoculation
Text: One day after this treatment, the plants are inoculated with an aqueous spore suspension of Alternaria solani.

Pyrenophora teres = experiment: In vivo preventive test on Pyrenophora teres (barley); conditions: 500 ppm of active ingredient, evaluated 7-9 days after inoculation
Text: One day after this treatment, the plants are inoculated with an aqueous spore suspension of Pyrenophora teres.

aflatoxines production = experiment: microbe, parasite or virus in culture; type: cell-based, Aspergillus parasiticus; conditions: 50 μM
Fusarium graminearum = experiment: microbe, parasite or virus in culture; type: cell-based; conditions: 50 μM
Sphaerotheca fuliginea = experiment: In vivo preventive test on Sphaerotheca fuliginea (cucumber); conditions: 500 ppm of active ingredient, evaluated 7 days after inoculation
Text: One day after this treatment, the plants are inoculated with an aqueous spore suspension of Sphaerotheca fuliginea.

Leptosphaeria nodorum = experiment: In vivo preventive test on Leptosphaeria nodorum (wheat); conditions: 500 ppm of active ingredient, evaluated 7-9 days after inoculation
Text: One day after this treatment, the plants are inoculated with an aqueous spore suspension of Leptosphaeria nodorum.

Septoria tritici = experiment: In vivo preventive test on Septoria tritici (wheat); conditions: 500 ppm of active ingredient, evaluated 21 days after inoculation
Text: (§1) To test for preventive activity, young plants are sprayed with the preparation of active compound or active compound combination at the stated rate of application.

[2] = tested on: Blumeria graminis f.sp. hordei; experiment: In vivo preventive test on Blumeria graminis (barley); conditions: 500 ppm of active ingredient, evaluated 7 days after inoculation
Text: as §1

[3] = Botrytis cinerea, 48 h, preventive, beans, 500 ppm of active ingredient, lesion size 2 days after inoculation, read-out: Efficacy

Cn1nc(C(F)F)c(C(=O)NC[Si](C)(C)c2ccccc2Cl)c1Cl [Example 232]
logP [1]: 3.69 | Efficacy (Puccinia triticina): 95%

Cc1nn(C)c(Cl)c1C(=O)NC(C)(C)C(=O)c1ccc2ccccc2c1 [2-1 from WO-2006/016708, 5-chloro-1,3-dimethyl-N-[2-methyl-1-(2-naphthyl)-1-oxopropan-2-yl]-1H-pyrazole-4-carboxamide, reference compound]
pest or weed control at 500 ppm (Botrytis cinerea; [3]): < 30%

CC(Cc1ccc(Cl)cc1)N(C(=O)c1cn(C)nc1C(F)F)C1CC1 (stereo not shown) [F-3 from WO-2007/060164, N-[1-(4-chlorophenyl)propan-2-yl]-N-cyclopropyl-3-(difluoromethyl)-1-methyl-1H-pyrazole-4-carboxamide, reference compound]
pest or weed control at 500 ppm (Botrytis cinerea; [3]): 0% | Efficacy (Botrytis cinerea; preventive, beans, 500 ppm of active ingredient, lesion size 2 days after inoculation, listed as F-3): no protection

CN(CCc1ccc(F)cc1)C(=O)c1c(C(F)F)nn(C)c1Cl [Example 24]
logP [1]: 2.66 | Efficacy (Alternaria solani): 100% | Efficacy (Pyrenophora teres): 95% | Efficacy (Puccinia triticina): 80% | % Inhibition of Aflatoxin at 50 μM (aflatoxines production): 100% | % Inhibition of fungal growth at 50 μM (Fusarium graminearum): 88%

COC(c1ccc(Cl)cc1Cl)C1(NC(=O)c2c(C(F)F)nn(C)c2Cl)CC1 (stereo not shown) [Example 78]
logP [1]: 3.70 | Efficacy (Sphaerotheca fuliginea): 100% | Efficacy (Alternaria solani): 100% | Efficacy (Pyrenophora teres): 100% | Efficacy (Leptosphaeria nodorum): 80% | % Inhibition of Aflatoxin at 50 μM (aflatoxines production): 100% | % Inhibition of fungal growth at 50 μM (Fusarium graminearum): 100%

CC(c1ccccc1Cl)C(C)N(C(=S)c1c(C(F)F)nn(C)c1F)C1CC1 (stereo not shown) [Example 43]
logP [1]: 4.72 | Efficacy (Sphaerotheca fuliginea): 100% | Efficacy (Alternaria solani): 90% | Efficacy (Pyrenophora teres): 100% | Efficacy (Leptosphaeria nodorum): 100% | % Inhibition of Aflatoxin at 50 μM (aflatoxines production): 100% | % Inhibition of fungal growth at 50 μM (Fusarium graminearum): 90%

Cn1cc(C(=O)NCCc2ccc(Cl)cc2Cl)c(C(F)F)n1 [compound CMP3, N-[2-(2,4-dichlorophenyl)ethyl]-3-(difluoromethyl)-1-methyl-1H-pyrazole-4-carboxamide, reference compound]
pest or weed control at 100 ppm (Botrytis cinerea; Botrytis cinerea, 48 h, preventive, beans, 100 ppm of active ingredient, lesion size 2 days after inoculation, read-out: Efficacy): 0%

Cc1nn(C)c(F)c1C(=O)N(C[Si](C)(C)c1cc(Cl)cc(Cl)c1)C1CC1 [compound CMP2, N-cyclopropyl-N-{[(3,5-dichlorophenyl)(dimethyl)silyl]methyl}-5-fluoro-1,3-dimethyl-1H-pyrazole-4-carboxamide, reference compound]
pest or weed control at 500 ppm (Botrytis cinerea; Botrytis cinerea, 48 h, dose 500 ppm of active ingredient, table K10, read-out: Efficacy): 10% | pest or weed control at 500 ppm (Botrytis cinerea; [3]): < 10%

Cn1cc(C(=O)N[C@H]2C[C@H]2c2ccc(Cl)cc2)c(C(F)F)n1 [1.001 from WO-2007/134799, N-[(1S,2S-1R′,2R)-2-(4-chlorophenyl)cyclopropyl]-3-(difluoromethyl)-1-methyl-1H-pyrazole-4-carboxamide, reference compound]
Efficacy (Botrytis cinerea; preventive, beans, 100 ppm of active ingredient, lesion size 2 days after inoculation): 8% | Efficacy (Botrytis cinerea; preventive, beans, 100 ppm of active ingredient, lesion size 2 days after inoculation, listed as 1.001): less than 10% | Efficacy (Botrytis cinerea; preventive, beans, 500 ppm of active ingredient, lesion size 2 days after inoculation): 89% | Efficacy (Botrytis cinerea; preventive, beans, 500 ppm of active ingredient, lesion size 2 days after inoculation, listed as 1.001): at least 85%

CC(Cc1cc(Cl)ccc1Cl)NC(=O)c1c(C(F)F)nn(C)c1Cl (stereo not shown) [Example 93]
logP [1]: 3.53 | Efficacy (Sphaerotheca fuliginea): 95% | Efficacy (Alternaria solani): 100% | Efficacy (Pyrenophora teres): 100% | Efficacy (Puccinia triticina): 70% | % Inhibition of Aflatoxin at 50 μM (aflatoxines production): 100% | % Inhibition of fungal growth at 50 μM (Fusarium graminearum): 100%

CC(Cc1cc(Cl)cc(Cl)c1)NC(=O)c1c(C(F)F)nn(C)c1Cl (stereo not shown) [Example 104]
logP [1]: 3.67 | Efficacy (Sphaerotheca fuliginea): 86% | Efficacy (Alternaria solani): 95% | Efficacy (Pyrenophora teres): 100% | Efficacy (Puccinia triticina): 70% | % Inhibition of Aflatoxin at 50 μM (aflatoxines production): 100% | % Inhibition of fungal growth at 50 μM (Fusarium graminearum): 98%

CC(Cc1cccc(Oc2ccccc2)c1)NC(=O)c1c(C(F)F)nn(C)c1Cl (stereo not shown) [Example 147]
logP [1]: 3.80 | Efficacy (Alternaria solani): 100% | Efficacy (Pyrenophora teres): 100% | Efficacy (Puccinia triticina): 70% | % Inhibition of Aflatoxin at 50 μM (aflatoxines production): 93% | % Inhibition of fungal growth at 50 μM (Fusarium graminearum): 77%

CC(c1ccccc1Cl)C(C)N(C(=O)c1c(C(F)F)nn(C)c1F)C1CC1 (stereo not shown) [Example 41]
logP [1]: 3.87 | Efficacy (Sphaerotheca fuliginea): 74% | Efficacy (Alternaria solani): 100% | Efficacy (Pyrenophora teres): 100% | Efficacy (Septoria tritici): 93% | Efficacy [2]: 100% | Efficacy (Leptosphaeria nodorum): 95% | % Inhibition of Aflatoxin at 50 μM (aflatoxines production): 100% | % Inhibition of fungal growth at 50 μM (Fusarium graminearum): 100%

CN(CCc1cc(Cl)ccc1Cl)C(=O)c1c(C(F)F)nn(C)c1Cl [Example 95]
logP [1]: 3.33 | Efficacy (Alternaria solani): 100% | Efficacy (Pyrenophora teres): 100% | Efficacy (Puccinia triticina): 70% | % Inhibition of Aflatoxin at 50 μM (aflatoxines production): 100% | % Inhibition of fungal growth at 50 μM (Fusarium graminearum): 100%

Cn1cc(C(=O)N(C2CC2)C2CCCC2c2ccc(Cl)cc2Cl)c(C(F)F)n1 (stereo not shown) [7 from WO-2010/09466, N-cyclopropyl-N-[2-(2,4-dichlorophenyl)cyclopentyl]-3-(difluoromethyl)-1-methyl-1H-pyrazole-4-carboxamide, reference compound]
Efficacy (protection) (Puccinia triticina; preventive, 500 ppm of active ingredient): less than 5%

Cc1nn(C)c(F)c1C(=O)NC(C)Cc1ncc(C(F)(F)F)cc1Cl (stereo not shown) [compound CMP6, N-{1-[3-chloro-5-(trifluoromethyl)pyridin-2-yl]propan-2-yl}-5-fluoro-1,3-dimethyl-1H-pyrazole-4-carboxamide, reference compound]
pest or weed control at 500 ppm (Botrytis cinerea; [3]): 0%

CC(Cc1ccccc1Cl)NC(=O)c1c(C(F)F)nn(C)c1Cl (stereo not shown) [Example 33]
logP [1]: 3.15 | Efficacy (Sphaerotheca fuliginea): 93% | Efficacy (Alternaria solani): 100% | Efficacy (Pyrenophora teres): 100% | Efficacy (Puccinia triticina): 80% | % Inhibition of Aflatoxin at 50 μM (aflatoxines production): 100% | % Inhibition of fungal growth at 50 μM (Fusarium graminearum): 100%

COC(c1ccc(Cl)cc1Cl)C1(NC(=O)c2c(C(F)F)nn(C)c2F)CC1 (stereo not shown) [Example 79]
logP [1]: 3.46 | Efficacy (Sphaerotheca fuliginea): 100% | Efficacy (Alternaria solani): 100% | Efficacy (Pyrenophora teres): 100% | Efficacy (Leptosphaeria nodorum): 80% | % Inhibition of Aflatoxin at 50 μM (aflatoxines production): 100% | % Inhibition of fungal growth at 50 μM (Fusarium graminearum): 98%

Cn1nc(C(F)F)c(C(=O)NC(C)(C)C(=O)c2ncc(C(F)(F)F)cc2Cl)c1Cl [Example 195]
logP [1]: 3.39 | Efficacy (Sphaerotheca fuliginea): 91% | Efficacy (Alternaria solani): 95% | Efficacy (Pyrenophora teres): 100% | Efficacy (Leptosphaeria nodorum): 94% | % Inhibition of Aflatoxin at 50 μM (aflatoxines production): 100% | % Inhibition of fungal growth at 50 μM (Fusarium graminearum): 81%

CC(Cc1ccccc1Cl)NC(=O)c1c(C(F)F)nn(C)c1F (stereo not shown) [Example 31]
logP [1]: 2.94 | Efficacy (Sphaerotheca fuliginea): 96% | Efficacy (Alternaria solani): 100% | Efficacy (Pyrenophora teres): 100% | Efficacy (Leptosphaeria nodorum): 70% | % Inhibition of Aflatoxin at 50 μM (aflatoxines production): 100% | % Inhibition of fungal growth at 50 μM (Fusarium graminearum): 100%

Cn1nc(C(F)F)c(C(=O)NC[Si](C)(C)c2ccc(Cl)cc2Cl)c1Cl [Example 239]
logP [1]: 4.25 | Efficacy (Alternaria solani): 90% | Efficacy (Puccinia triticina): 70%

COC(CNC(=O)c1c(C(F)F)nn(C)c1F)c1cc(Cl)cc(Cl)c1 (stereo not shown) [Example 107]
logP [1]: 3.33 | Efficacy (Alternaria solani): 90% | Efficacy (Pyrenophora teres): 95% | Efficacy (Septoria tritici): 86% | Efficacy [2]: 78% | % Inhibition of Aflatoxin at 50 μM (aflatoxines production): 98% | % Inhibition of fungal growth at 50 μM (Fusarium graminearum): 74%

CC(Cc1c(F)cccc1Cl)N(C(=O)c1c(C(F)F)nn(C)c1Cl)C1CC1 (stereo not shown) [Example 119]
logP [1]: 3.94 | Efficacy (Alternaria solani): 100% | Efficacy (Pyrenophora teres): 100% | Efficacy (Puccinia triticina): 80% | % Inhibition of Aflatoxin at 50 μM (aflatoxines production): 95% | % Inhibition of fungal growth at 50 μM (Fusarium graminearum): 79%

CC(Cc1cc(Cl)cc(Cl)c1)NC(=O)c1c(C(F)F)nn(C)c1F (stereo not shown) [Example 102]
logP [1]: 3.48 | Efficacy (Alternaria solani): 95% | Efficacy (Pyrenophora teres): 100% | Efficacy (Puccinia triticina): 70% | % Inhibition of Aflatoxin at 50 μM (aflatoxines production): 100% | % Inhibition of fungal growth at 50 μM (Fusarium graminearum): 100%

Cc1nn(C)c(F)c1C(=O)NCCc1ncc(C(F)(F)F)cc1Cl [J-1 from WO-2004/074280, N-{2-[3-chloro-5-(trifluoromethyl)pyridin-2-yl]ethyl}-5-fluoro-1,3-dimethyl-1H-pyrazole-4-carboxamide, reference compound]
Efficacy (Sphaerotheca fuliginea): 16% | Efficacy (Sphaerotheca fuliginea; listed as J-1): less than 20% | pest or weed control at 500 ppm (Botrytis cinerea; [3]): 0% | Efficacy (Botrytis cinerea; preventive, beans, 500 ppm of active ingredient, lesion size 2 days after inoculation, listed as J-1): no protection

Cn1nc(C(F)F)c(C(=O)N(C[Si](C)(C)c2ccccc2)C2CCCCC2)c1F [Example 229]
logP [1]: 4.86 | Efficacy (Alternaria solani): 90% | Efficacy (Pyrenophora teres): 70% | Efficacy (Puccinia triticina): 80%
